Key:
HT-29 = assay: Inhibitory concentration against human colon tumor cell line HT-29; type: functional, cell-based
[1] = molecular target: Cyclin-dependent kinase inhibitor 1 (Homo sapiens) (UniProt P38936); assay: Selectivity ratio between p21(-/-) and p21(+/+) isogenic cell lines; type: functional
SW-620 = assay: Inhibitory concentration against human colon tumor cell line SW620; type: functional, cell-based
LoVo = assay: Inhibitory concentration against human colon tumor cell line LoVo; type: functional, cell-based
DLD-1 = assay: Inhibitory concentration against human colon tumor cell line DLD1; type: functional, cell-based

Chain of Cyclin-dependent kinase inhibitor 1 (Homo sapiens) (P38936 whole entry): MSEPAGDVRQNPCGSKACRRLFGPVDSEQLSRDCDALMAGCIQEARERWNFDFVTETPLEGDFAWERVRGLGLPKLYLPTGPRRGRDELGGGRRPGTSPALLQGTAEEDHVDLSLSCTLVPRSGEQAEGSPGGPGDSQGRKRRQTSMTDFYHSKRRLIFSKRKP

Compound | IC50 (HT-29) | Ratio [1] | IC50 (SW-620) | IC50 (LoVo) | IC50 (DLD-1)
O=C(c1cccs1)c1cnn2c(-c3cccc(NC(=O)C4CC4)c3)ccnc12 | – | 30 | – | – | –
COc1cc(-c2nc(O)c3c4c(sc3n2)CCCCC4)cc(OC)c1OC | 450 nM | 8.7 | 220 nM | 170 nM | 350 nM
CCOc1ccc(-c2nc(O)c3c4c(sc3n2)CCCC4)cc1 | 5000 nM | > 2.4 | 5000 nM | 2600 nM | 4600 nM
CSc1ccc(-c2nc(O)c3c4c(sc3n2)CCCC4)cc1 | 1000 nM | > 4.9 | 800 nM | 430 nM | 890 nM

Further compounds by falling IC50 (HT-29), results first:

IC50 (HT-29) | Ratio [1] | IC50 (SW-620) | IC50 (LoVo) | IC50 (DLD-1) | Compound
420 nM | 19 | 420 nM | 460 nM | 220 nM | COc1ccc(-c2nc(O)c3c4c(sc3n2)CCCC4)c(F)c1
330 nM | > 8.5 | 230 nM | 150 nM | 290 nM | COc1ccc(-c2nc(O)c3c4c(sc3n2)CCCC4)cc1
330 nM | 8.3 | 230 nM | 150 nM | 290 nM | COc1ccc(-c2nc(O)c3c4c(sc3n2)CCC4)cc1
300 nM | > 5.8 | 190 nM | 130 nM | 260 nM | COc1cc(-c2nc(O)c3c4c(sc3n2)CCC4)cc(OC)c1OC
240 nM | > 8.7 | 190 nM | 140 nM | 280 nM | COc1cc(-c2nc(O)c3c4c(sc3n2)CCCC4)cc(OC)c1OC
